The source of these data is patent US12144791B2, “KRAS agonists, pharmaceutical compositions, and uses in managing cancer” (Emory University, priority 2019, dated 2024).

For one data set, the system named is KRAS. The data set is described as follows: KRAS-GTP pull-down by Raf-1-RBD and Western blot in lung cancer cell lines. The note with it: 48 h. It counts as cell-based, human. On the procedure: (§1) “0” means DMSO vehicle control. […] Expression levels of KRAS, pERK, active caspase 3, PARP cleavage, Beclin1, LC3-I and LC3-II in total lysate were analyzed by Western blot.
A library containing small molecules from the National Cancer Institute (NCI) was employed to dock the GTP/GDP binding pocket of KRAS (PDB ID code: 4EPT) using the University of California, San Francisco (UCSF) DOCK 6.1 program suite. The small molecules were ranked according to their energy scores. Top 500 small molecules with predicted binding energies were selected for screening of cytotoxicity in human lung cancer cells by sulforhodamine B (SRB) assay. […] This lead compound was named KRAS agonist-533 (KRA-533) (FIG. 1A). To test whether KRA-533 regulates KRAS activity in lung cancer cells, human lung cancer cell lines with or without KRAS mutation were treated with KRA-533 (10 μM) for 48 h. […] Cell proliferation was also measured following treatment of cells for 48 h using MTS Cell Proliferation Colorimetric Assay Kit.
(§2) Activated KRAS can trigger cell death via apoptosis and autophagy-associated cell death in cancer cells. To test whether KRA-533- activated KRAS promotes apoptosis and autophagic cell death, A549, H157, Calu-1 and H292 cells were treated with increasing concentrations of KRA-533 for 48 h, followed by analysis of KRAS activity, apoptosis and autophagy. […] Autophagy was measured by analysis of LC3-I/LC3-II and p62 following treatment of cells with KRA-533. It is well known that p62 is an autophagy receptor or substrate that can be degraded by autophagy. In addition to LC3-II, p62 was analyzed as another autophagy marker. […] To further quantify the level of autophagy, a GFP-LC3 construct was used to indicate autophagosomes. After treatment with KRA-533, GFP-LC3 redistributed from a diffuse staining pattern in the cytoplasm and nucleus to a cytoplasmic punctate structure that specifically labels pre-autophagosomal and autophagosomal membranes (i.e. GFP-LC3 vac cells). […] These findings indicate that, in addition to apoptosis, KRA-533 can also induce autophagic cell death.

The target in a further data set is KRAS WT (Homo sapiens, UniProt P01116). The data set is described as follows: Thermal shift assay, purified KRAS WT. In kind it is binding. Conditions: increasing concentrations. On the procedure:
Melting temperature (Tm) values of DMSO Ctrl and 15 μM of KRA-533 are shown.
Melting temperature (Tm) values of DMSO control and 15 μM KRA-533 are shown.
To test whether KRA-533 directly binds to KRAS, a thermal shift assay was employed. […] To further assess whether KRA-533 activates KRAS directly, an in vitro cell-free GDP-GTP exchange experiment was carried out. Purified WT, G12C, G12D or G13D mutant KRAS proteins were incubated with purified GEF (RASGRP1) and GAP (RASA1) proteins in reaction buffer containing [γ-35S]-GTP in the absence or presence of increasing concentrations of KRA-533 at 25° C. for 60 min. KRAS activity was quantified by liquid scintillation counting. […] These findings indicate that KRA-533 not only activates WT KRAS but also has the capacity to further enhance KRAS activity of mutant KRAS.
(§3) To further test this intracellularly, GFP-tagged WT, S17A, K117A and AA KRAS mutants were exogenously transfected into A549 cells. […] Activities of exogenous GFP-tagged WT and KRAS mutants were analyzed by Western blot using GFP antibody.

A further data set addresses T1, KRAS S17A (Homo sapiens, UniProt P01116, S17A).
T1 construct: made in house
Nature of the data set: In vitro cell-free GDP-GTP exchange, KRAS S17A. It counts as biochemical. Conditions: 15 μM. On the procedure:
GTPγS, purified GFP (RASGRP1, 180 nM) and GAP (RASA1, 180 nM) at 25° C. in the presence or absence of 15 μM KRA-533. The radioactivity remaining on the protein after intensive washing was quantified by liquid scintillation.
as §3

Data set [1] relates to A549, H157, Calu-1 and H292 cells. Nature of the data set: Western blot of pERK, apoptosis and autophagy markers in total lysate. Conditions: 0, 5, 10, 15 μM, 48 h. It counts as cell-based, human. Here is the method:
as §1, §2
On the technique in general: A western blot detects proteins with antibodies after separation by electrophoresis.

For data set [2], the system named is A549 xenografts bearing mutant KRAS. Nature of the data set: A549 lung cancer xenografts bearing KRAS mutation (G12S). In kind it is in vivo. Here is the method:
Tumor volume was measured once every 2 days (left panel). Tumor volumes of 6 individual mice in each group were compared on day 28 (right panel). After 28 days, the mice were sacrificed, and the tumors were removed and analyzed.
Expression levels of active caspase-3, cleaved PARP, Beclin-1 and LC3-II in tumor tissues were analyzed by Western blot.
To test the potency of KRA-533 in vivo, lung cancer xenografts derived from A549 cells bearing KRAS mutation (G12S) were treated with increasing doses (0, 7.5, 15, and 30 mg/kg/day) of KRA-533 i.p. for 28 days. […] To assess whether KRA-533 induced suppression of tumor growth via apoptosis and autophagy in vivo, representative samples from harvested tumor tissues were analyzed by immunohistochemistry (IHC) for active caspase-3 or LC3-II.

Data set [3] relates to G12D mutant KRAS-driven lung cancer. Nature of the data set: Genetically engineered LSL-KRASG12D mouse lung cancer model. In kind it is in vivo. An excerpt: Tumor numbers were counted under the microscope and tumor area was quantified using modular imaging software.
KRAS mutations are common genetic alterations in NSCLC and contribute to the resistance of lung cancer to conventional therapy. To test the potency of KRA-533 in mutant KRAS-driven lung cancer, lox-stop-lox (LSL)-KRASG12D mice were generated. By engineering LoxP DNA elements into the mouse genome that surround a synthetic ‘stop’ element (lox-stop-lox) inserted in front of mutant KRAS G12D, one can ‘turn-on’ mutant KRAS G12D with delivery of Cre recombinase. To control the expression of KRAS G12D, a LSL cassette was engineered into the first intron of the KRAS gene. The LSL cassette consists of transcriptional and translational stop elements flanked by LoxP sites that prevent the expression of the mutant allele until the stop elements are removed by the activity of Cre recombinase. To produce KRAS G12D mutant-driven lung cancer, alleles were induced in mouse lung using intranasal administration of a lentiviral Cre recombinase. Primary lung tumors developed around 12 weeks post-inoculation.
To assess whether KRA-533 has antitumor activity against G12D mutant KRAS-driven lung cancer in genetically engineered mouse models, KRA-533 (20 mg/kg/d) or vehicle control was administered i.p. starting at 10 weeks post AdeCre delivery. After treatment for 3 months, mice were euthanized for analysis of tumor burden. […] There were 3 deaths out of 8 mice in the control group versus 1 death out of 8 mice in the KRA-533 treatment group in four months before euthanization.

Setting [4] is: 0, 7.5, 15, and 30 mg/kg/day i.p. for 28 days.

Entries after “also recorded” stand apart in the source; their conditions may differ.

As to `O=C(CBr)NCCCCc1ccc(C(=O)O)cc1` [KRA-533, 4-(4-(2-bromoacetamido)butyl)benzoic acid], the “KRAS activity, cell lines bearing KRAS mutation versus without” value in the data set on KRAS (10 μM) is “enhanced KRAS activity to a greater extent in cell lines bearing KRAS mutation than in cell lines without KRAS mutation”. In addition, the “KRAS activity (GTP-KRAS pulled down by Raf-1-RBD)” value in the data set on KRAS (10 μM, human lung cancer cell lines with or without KRAS mutation) was “enhanced KRAS activity in most human lung cancer cell lines tested, except H292”. In addition, the “KRAS activity (KRAS-GTP), dose response” value with KRAS (A549, H157, Calu-1 and H292 cells, 0, 5, 10, 15 μM) is listed as “enhanced KRAS activity in a dose-dependent manner”. Further, the “melting temperature (Tm) / binding, KRAS WT” value on KRAS WT is listed as “Dose dependent increases in melting temperature (Tm); also recorded: could bind”. Further, on KRAS S17A, the “KRAS activity (liquid scintillation), KRAS S17A” value is “directly activated”. For the same compound, in data set [1], the LC3-II entry is “dose-dependent increase of LC3-II”, the PARP cleavage entry is recorded as “increased”, the “levels of pERK” value is “increased levels” and the p62 result is “dose-dependent decrease of p62”. The “ratio of active caspase 3/procaspase 3” value in data set [1] is “increased”. Moreover, in data set [2] (setting [4]), the “apoptosis and autophagy in tumor tissues (IHC active caspase-3, LC3-II)” value is “induced apoptosis and autophagy in tumor tissues in a dose-dependent manner”; the tumor growth entry was “suppressed tumor growth in a dose-dependent manner”. For the same compound, in data set [2] (7.5˜30 mg/kg/d), the “blood cells (WBC, RBC and PLT), BUN and ALT/AST” value is recorded as “in the normal range”; the body weight entry was “no weight loss”; the tolerability result is recorded as “well tolerated without significant toxicity”. Moreover, the “histopathology of normal tissues (brain, heart, lung, liver, spleen, kidney and intestine)” value in data set [2] (7.5˜30 mg/kg/day) is reported as “no evidence of normal tissue toxicities”. Also, the “active KRAS in tumor tissues (Raf-1-RBD pull-down)” value in data set [2] (tumor tissue lysates after 28 days) is recorded as “accumulation of active KRAS in tumor tissues”. Moreover, in data set [3] (20 mg/kg/d i.p.), the “deaths in four months before euthanization” value is 1 death out of 8 mice; the “weight loss and normal tissue toxicity” value is “Slight weight loss but no significant normal tissue toxicity”. Also, the “tumor burden and multiplicity in the lung” value in data set [3] (20 mg/kg/d i.p. from 10 weeks post AdeCre, four months) was “significant reduction of tumor burden and multiplicity in the lung”. The survival entry in data set [3] (20 mg/kg/d i.p., compared with the control group) is “prolonged survival”.
